In patent US20250144107A1, “USE OF A PIKFYVE INHIBITOR IN COMBINATION WITH IMMUNOTHERAPY” (The Regents of the University of Michigan, priority 2023, published 2025):

Legend:
subcutaneous MC38 tumors = assay: Subcutaneous MC38 tumor model; type: in vivo, mice
Experimental: FIG. 16A is a line graph of the subcutaneous tumor volume of MC38 tumors in mice treated with vehicle or apilimod, 30 mg/kg×5 days/week.
FIG. 16B is a series of two scatter plots of the percent IFNγ^+ of CD8^+ T cells in vehicle or apilimod-treated MC38 tumors.
FIG. 16C is a line graph of the subcutaneous tumor volume of MC38 tumors in mice treated with vehicle versus apilimod, 30 mg/kg×5 days/week, in wild-type or Batf3^−/− mice.
FIG. 26A is a bar graph of the percent IFNγ^+ of CD8^+ T cells in vehicle or apilimod-treated, 30 mg/kg×5 days/week MC38 tumors.
FIG. 26B is a line graph of the subcutaneous tumor volume of MC38 tumors treated with vehicle versus apilimod, 30 mg/kg×5 days/week, in NSG™ mice.
FIG. 26C is a line graph of the subcutaneous tumor volume of MC38 tumors in mice treated with vehicle versus apilimod, 30 mg/kg×5 days/week, and additionally treated with IgG2a or αIL-12p40 blocking antibody.
FIG. 26D is a line graph of the subcutaneous tumor volume of MC38 tumors in mice treated with vehicle versus apilimod, 30 mg/kg×5 days/week, and additionally treated with IgG1 or αIFNγ blocking antibody.

[1] = reported, Ikonomov et al. 2019; cited from earlier work
[2] = tested on: NF-κB gene targets in cDCs; assay: RNA-seq and gene set enrichment in cDCs; type: cell-based, mice
Experimental: FIG. 14B is a line graph of the enrichment of NF-κB target genes in DMSO or apilimod-treated, 3 hours, cDCs after 6 days of culture.
FIG. 14C is a line graph of the enrichment of NF-κB target genes in DMSO or apilimod-treated, 8 hours, cDCs after 6 days of culture.
FIG. 14H is a scatter plot of differentially expressed genes in apilimod versus DMSO-treated, 8 hours, cDCs after 6 days of culture.
FIG. 21C is a line graph of MSigDB Hallmark “TNF_SIGNALING_VIA_NFκB” in apilimod vs. DMSO-treated, 3 hours, cDCs after 6 days of culture.
FIG. 21D is a line graph of MSigDB Hallmark “TNF_SIGNALING_VIA_NFκB” in apilimod vs. DMSO-treated, 8 hours, cDCs after 6 days of culture.
The Eukaryote Total RNA Nano kit (Agilent Technologies; catalog #: 5067-1511) was used to check the quality of RNAs on an Agilent bioanalyzer. A total of 800 ng RNA was then used for library preparation with the KAPA RNA Hyper+RiboErase HMR kit (Roche Diagnostics; Catalog #: 08098140702), following the instructions from the user manual. Briefly, the ribosomal RNA was removed by enzymatic digestion, and then the RNA was fragmented to around 200-300 bp with heat in fragmentation buffer. Synthesis of cDNA was conducted with reverse transcriptase and random primer, and then the second strand was synthesized to generate double-stranded cDNA. Following the repair of the DNA ends, NEB adapter was ligated, and the DNA are amplified with the KAPA HiFi HotStart mix and NEB dual barcode. Quality of the library was checked using the bioanalyzer with the Agilent DNA 1000 Kit (Agilent Technologies; catalog #: 5067-1504), and the sequencing was performed using NovaSeq 6000. The RNA-sequencing data was analyzed with packages limma and edgeR See, e.g., Ritchie, M. E. et al., Nucleic Acids Res. 2015; 43(7):47; Phipson, B. et al., Ann. Appl. Stat. 2016; 10(2):946-963; Robinson, M. D. et al., Bioinformatics 2010; 26(1):139-40. […] The analyzed hallmark pathways were collected from the Molecular Signatures Database See, e.g., Subramanian, A. et al., Proc. Natl. Acad. Sci. USA 2005; 102(43):15545-15550; Liberzon, A. et al., Cell Syst. […]

IL-12 in cDCs = assay: Il12b RT-qPCR and IL-12 ELISA in cDCs; type: cell-based, mice
Experimental: FIG. 21E is a bar graph comparison of Il12b expression fold change by RT-qPCR in apilimod vs. DMSO-treated, 3 or 12 hours, cDCs after 6 days of culture.
FIG. 21F is a bar graph comparison of IL-12p40 protein levels by ELISA in media from apilimod vs. DMSO-treated, 12 hours, cDCs after 6 days of culture.
FIG. 21G is a bar graph Supp. 5 g Comparison of IL-12p70 protein levels by ELISA in media from apilimod vs. DMSO-treated, 24 hours, cDCs after 6 days of culture.

B16F10-OVA tumors = assay: B16F10-OVA tumor model with PolyI:C adjuvant; type: in vivo, mice
Experimental: FIG. 16F is a series of four line graphs of the Individual growth curves of subcutaneous B16F10-OVA tumor volume following 21 days of pre-treatment with vehicle versus apilimod, 30 mg/kg daily, with or without subcutaneous injection of water versus PolyI:C, 100 μg on Day 1 and Day 14.
FIG. 16H is a series of four line graphs of the Individual growth curves of subcutaneous B16F10-OVA tumor volume in mice treated with vehicle or apilimod, 30 mg/kg daily, with or without a subcutaneous injection of water versus PolyI:C, 100 μg once weekly.
FIG. 26I is a line graph of the subcutaneous tumor volume of B16F10-OVA tumors following 21 days of pre-treatment with vehicle versus apilimod, 30 mg/kg×5 days/week, with or without subcutaneous injection of water versus PolyI:C, 100 μg on Day 1 and Day 14.
FIG. 26J is a line graph of the subcutaneous tumor volume of B16F10-OVA tumors in mice treated with vehicle or apilimod, 30 mg/kg×5 days/week, with or without subcutaneous injection of water versus PolyI:C, 100 μg once weekly.

## Cc1cccc(/C=N/Nc2cc(N3CCOCC3)nc(OCCc3ccccn3)n2)c1 [apilimod, N-[(E)-(3-methylphenyl)methylideneamino]-6-morpholin-4-yl-2-(2-pyridin-2-ylethoxy)pyrimidin-4-amine]
Subcutaneous MC38 tumors; Batf3−/− vs WT mice
  efficacy in Batf3−/− mice: loss of apilimod efficacy
Subcutaneous MC38 tumors; WT mice
  percentage of intratumoral IFNγ+CD8+ T cells: increased
Subcutaneous MC38 tumors; WT mice, 30 mg/kg x 5 days/week, vs vehicle
  MC38 tumor growth: reduced
Subcutaneous MC38 tumors; immune-deficient NSG mice
  efficacy in NSG mice: lost
Subcutaneous MC38 tumors; vs isotype control
  efficacy with neutralizing antibody against IFNγ: reduced
  efficacy with neutralizing antibody against IL-12: reduced
[1]
  stability: instability
[2]; 3 and 8 hours, vs DMSO
  enrichment of TNF_SIGNALING_VIA_NFκB gene set: positive enrichment
[2]; 8 hours, vs DMSO
  Sqstm1 expression: most significantly upregulated gene
[2]; early time points
  enrichment of direct NF-κB gene targets: positively enriched
IL-12 in cDCs; ELISA
  secretion of IL-12p40: increased
  secretion of IL-12p70: increased
IL-12 in cDCs; RT-qPCR
  Il12b transcripts: increased
B16F10-OVA tumors; 21 days pre-treatment, combination of apilimod and PolyI:C, vs control or either agent alone
  subsequent tumor growth: decrease
B16F10-OVA tumors; treatment after inoculation, combination of apilimod and PolyI:C
  tumor growth inhibition: further potentiated
B16F10-OVA tumors; treatment after inoculation, each agent alone
  tumor growth: modest tumor growth inhibition
